From ChEMBL document CHEMBL1128132, “Ace inhibitors as a template for the design of bradykinin B2 receptor antagonists” (Bioorg Med Chem Lett, 1995) come the findings set out here.

For one test, the target named is T1, B2 bradykinin receptor (Homo sapiens, UniProt P30411).
T1 sequence (P30411 whole entry): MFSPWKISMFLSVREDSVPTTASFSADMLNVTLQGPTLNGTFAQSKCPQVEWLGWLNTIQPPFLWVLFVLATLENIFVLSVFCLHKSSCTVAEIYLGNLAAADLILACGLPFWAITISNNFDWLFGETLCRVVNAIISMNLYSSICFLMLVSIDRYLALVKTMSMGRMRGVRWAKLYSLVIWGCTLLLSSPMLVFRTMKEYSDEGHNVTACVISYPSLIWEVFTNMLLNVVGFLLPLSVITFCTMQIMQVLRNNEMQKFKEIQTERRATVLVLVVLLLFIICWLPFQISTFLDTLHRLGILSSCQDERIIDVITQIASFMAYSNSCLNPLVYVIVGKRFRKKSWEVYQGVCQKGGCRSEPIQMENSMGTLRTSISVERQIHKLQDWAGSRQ
The experiment in a line: Tested for binding affinity against human IMR-90 Bradykinin receptor B2.
One may read the Ki as the dissociation constant of the complex between target and ligand, obtained from inhibition or displacement. A lower Ki goes with higher affinity. In turn, `CCCC[P+](CCCC)(CCCC)Cc1ccc(NC(=O)C2Cc3ccccc3CN2C(=O)C(CCc2ccccc2)NC(=O)OC(C)(C)C)cc1` (stereo not drawn) displayed an inhibitory constant (Ki) of 8 µM. For `CCCC[P+](CCCC)(CCCC)Cc1ccc(NC(=O)C2Cc3ccccc3CN2C(=O)CCCc2ccccc2)cc1` (stereo not drawn), the affinity corresponds to a Ki of 10 µM.

In the next test the target is T2, B2 bradykinin receptor (Homo sapiens) (UniProt P30411).
T2 sequence (whole entry): T1 sequence (P30411 whole entry)
The experiment in a line: Tested for percent inhibition of binding affinity against Bradykinin receptor B2 at 10 uM concentration.
A word on the inhibition: it is how much of the control response was suppressed. A lower inhibition goes with a weak effect. Take `CCCC[P+](CCCC)(CCCC)Cc1ccc(NC(=O)C2Cc3ccccc3CN2C(=O)CNC(=O)OC(C)(C)C)cc1` (stereo not drawn): the inhibition was 18%. Take `CCCC[P+](CCCC)(CCCC)Cc1ccc(NC(=O)C2Cc3ccccc3CN2C(=O)C(CCc2ccccc2)NC(=O)OC(C)(C)C)cc1` (stereo not drawn): the inhibition is > 50%. For `O=C(Nc1ccc(CN/C(=N/C2CCCCC2)NC2CCCCC2)cc1)C1Cc2ccccc2CN1C(=O)CN/C(=N/C1CCCCC1)NC1CCCCC1` (stereo not drawn), the inhibition is 12%. In turn, `CCCC[PH](CCCC)(CCCC)Cc1ccc(NC(=O)C2Cc3ccccc3CN2C(=O)CN)cc1` (stereo not drawn) returned an inhibition of 36%.

Regarding `CCCC[PH](CCCC)(CCCC)Cc1ccc(NC(=O)C2Cc3ccccc3CN2C(=O)CN/C(=N/C2CCCCC2)NC2CCCCC2)cc1` (stereo not drawn), the inhibition was determined as 33%. In the case of `CCCC[PH](CCCC)(CCCC)Cc1ccc(NC(=O)C2Cc3ccccc3CN2C(=O)[C@H](CCc2ccccc2)N/C(=N/C2CCCCC2)NC2CCCCC2)cc1` (single isomer, unassigned; diastereomer 2), the inhibition was > 50%. On the same count and under the same terms, the value for `CCCC[P+](CCCC)(CCCC)Cc1ccc(NC(=O)C2Cc3ccccc3CN2C(=O)CCCc2ccccc2)cc1` (stereo not drawn) was > 50%; that for `CCCC[PH](CCCC)(CCCC)Cc1ccc(NC(=O)C2Cc3ccccc3CN2C(=O)[C@@H](N)CCc2ccccc2)cc1` (single isomer, unassigned; diastereomer 1) was 26%. Take `CCCC[PH](CCCC)(CCCC)Cc1ccc(NC(=O)C2Cc3ccccc3CN2C(=O)[C@H](CCc2ccccc2)N/C(=N/C2CCCCC2)NC2CCCCC2)cc1` (single isomer, unassigned; diastereomer 1): the inhibition is > 50%. `CCCC[PH](CCCC)(CCCC)Cc1ccc(NC(=O)C2Cc3ccccc3CN2C(=O)[C@@H](N)CCc2ccccc2)cc1` (single isomer, unassigned; diastereomer 2) displayed an inhibition of 26%. As to `CCCC[PH](CCCC)(CCCC)Cc1ccc(NC(=O)C2Cc3ccccc3CN2/C(=N/C2CCCCC2)NC2CCCCC2)cc1` (stereo not drawn), the inhibition stood at 34%.
